From paper PMC11431997, “Baicalin Inhibits FIPV Infection In Vitro by Modulating the PI3K-AKT Pathway and Apoptosis Pathway” (International Journal of Molecular Sciences, 2024)
Values after ≈ are worked out from the molar mass of the structure shown. Values joined by “and” are separate entries in the source; they are usually repeats but may differ in a detail not shown here. Identical values can stand only once.

Columns and labels:
FIPV (BJ-01) [1] = assay: Impact of the compound on FIPV adsorption (cells pre-incubated with compound, CCK-8); type: cell-based, feline infectious peritonitis virus; settings: cells co-cultured with baicalin before FIPV, all times
Experimental: According to previous methods, CRFK cells were seeded in 96-well cell culture plates at a density of 1 × 10^4 cells/well and cultured at 37 °C in 5% CO2 until the cell density was greater than 90%. Then, the medium was discarded, and the cells were washed twice with PBS. The compound was first added into 96-well cell culture plates at 100 μL/well and then incubated at 37 °C and 5% CO2 for […], 1, 2, 4, and 6 h, respectively, then incubated at 4 °C for 1 h. After that, the liquid in the plates was removed and washed with PBS twice. Then, added FIPV into cells at 100 μL/well and incubated at 37 °C and 5% CO2 (at the same time, a cell control group with only 100 μL of MM and a viral control group with only 100 μL of FIPV were added). There were 3 replicate wells for each compound and group. After the CPE of the viral control group reached more than 80%, the liquid in the culture plate was removed and washed twice with PBS. Afterwards, the IR of the compounds against the virus was computed according to the directions of the Cell Counting Kit-8.

FIPV (BJ-01) [2] = assay: Inhibitory effects of compounds on FIPV-infected cells (compound and FIPV added simultaneously, CCK-8); type: cell-based, feline infectious peritonitis virus
Experimental: According to previous methods, CRFK cells were seeded in 96-well cell culture plates at a density of 1 × 10^4 cells/well and cultured at 37 °C in 5% CO2 until the cell density was greater than 90%. After the cells were washed twice with PBS, 50 μL of test compound and 50 μL of FIPV were added to each well simultaneously (at the same time, a cell control group with only 100 μL of MM and a viral control group with only 100 μL of FIPV were added). There were 3 replicate wells for each compound and group. After 72 h of incubation at 37 °C and 5% CO2, the liquid in the plate was discarded, and the cells were washed twice with PBS. The MIR of the compounds to the virus was calculated according to the instructions of the Cell Counting Kit-8. Afterwards, the compounds with MIR > 50% were diluted to 8 concentrations with MM, and the above process was repeated. Then, the EC50 values of the compounds were calculated with GraphPad Prism 10.

FIPV (BJ-01) [3] = assay: Cellular viral load by qPCR (FIPV-N gene); type: cell-based, feline infectious peritonitis virus
Experimental: CRFK cells were seeded in a 96-well cell culture plate at a density of 1 × 10^4 cells/well and cultured at 37 °C in 5% CO2 until the cell density was greater than 90%. After the cells were washed twice with PBS, 50 μL of compound and 50 μL of FIPV were added to each well simultaneously, and the plates were incubated at 37 °C and 5% CO2 for 12, 24, 36, 48, 60, and 72 h (at the same time, a cell control group with only 100 μL of MM and a viral control group with only 100 μL of FIPV were added). There were 3 replicate wells for each group and incubation time. After the liquid in the plate was discarded, the cells were washed twice with PBS. Then, the cells were digested by adding tryptic digest at 30 μL/well, the cell suspension was collected, and the cell precipitates were collected by centrifugation at 3000 rpm for 1 min. Total cellular RNA was extracted after the cell precipitates were resuspended in PBS according to the instructions of the FastPure Viral DNA/RNA Mini Kit Pro (Vazyme, Nanjing, China). Then, reverse transcription was performed using HiScript IV RT SuperMix for qPCR (+gDNA wiper) (Vazyme, Nanjing, China). The sequences of the primers used for the detection of the FIPV-N (GenBank: MK840958.1) were […] (F: 5′→3′) and […] (R: 5′→3′). The sequences of the primers used for the detection of the GAPDH genes were […] (F: 5′→3′) and […] (R: 5′→3′). […]

[4] = tested on: PI3K-AKT signaling pathway and apoptosis pathway; assay: Western blot of key proteins in FIPV-infected CRFK cells; type: cell-based, feline; settings: treatment group vs FIPV group, p < 0.05
Experimental: Based on the results of the above experiments, the cell precipitates were collected according to the method in Section 4.6 and grouped as described in Section 4.7. After infection, the cells were collected at the appropriate time of infection, and the proteins were extracted from the samples according to the instructions of a total protein extraction kit (strong) (Solarbio, Beijing, China). Afterwards, the protein concentration of the extracted samples was determined separately using a BCA Protein Quantification Kit (Vazyme, Nanjing, China), and all sample proteins were diluted to the same concentration using PBS. The diluted protein samples were mixed with NuPAGE LDS Sample Buffer (4×) (Invitrogen, Waltham, MA, USA) at a ratio of 1:4 and heated at 70 °C for 10 min to denature the proteins. After that, the denatured proteins were added to 10 wells of 12% sodium dodecyl sulfate-polyacrylamide gel electrophoresis (SDS-PAGE) (Vazyme, Nanjing, China) at 20 μg/well, after which the total proteins were separated on NuPAGE MES SDS Running Buffer (Invitrogen, CA, USA). After separation, proteins were transferred from the gel onto 0.45 μm polyvinylidene fluoride (PVDF) membranes (Millipore, Billerica, MA, USA) using WB Transfer Buffer (Solarbio, Beijing, China). After that, the PVDF membranes were blocked with 5% skim milk (Solarbio, Beijing, China) at room temperature for 2 h. At the end of the closure, the membranes were washed with TBST (6 times, each time for 5 min, as described below); then. the primary antibodies were added and incubated at 4 °C overnight. The next day, the PVDF membranes were washed with TBST, the primary antibodies were removed, and the secondary antibodies were added and incubated at room temperature for 2 h (the antibody information and dilutions are shown in Section 4.1.4). At the end of the incubation, the PVDF membranes were washed with TBST, after which the protein bands were exposed and imaged using a SuperPico ECL Chemiluminescence Kit (Vazyme, Nanjing, China) and an Al680 imaging system (GE, Boston, MA, USA). The gray values of the WB bands were analyzed using ImageJ 1.54f, and the relative expression was calculated using GAPDH as an internal reference protein.

O=C(O)[C@H]1O[C@@H](Oc2cc3oc(-c4ccccc4)cc(=O)c3c(O)c2O)[C@H](O)[C@@H](O)[C@@H]1O [Baicalin]
inhibition rate on FIPV infection (adsorption) (FIPV (BJ-01) [1]): ≤ 50% | EC50 (FIPV (BJ-01) [2]; Alphacoronavirus 1, FIPV in CRFK cells, gradient dilution, 72 h, CCK-8): 20.8 µg/mL (≈ 46.6 µM) | SI (CC50/EC50) (FIPV (BJ-01) [2]; FIPV, CRFK cells): > 3 and 5.5 | FIPV-N gene copy number (FIPV (BJ-01) [3]; 48 h compared with 36 h of baicalin treatment, p < 0.05): significantly decreased | time of peak FIPV-N gene copy number after baicalin treatment (FIPV (BJ-01) [3]; FIPV-infected CRFK cells, qPCR at 12-72 h): 36 h | Bax relative expression (WB, GAPDH reference) [4]: significantly downregulated | Bcl-2/Bax relative expression (WB) [4]: significantly upregulated | Bcl-2 relative expression (WB, GAPDH reference) [4]: significantly upregulated | EGFR relative expression (WB, GAPDH reference) [4]: significantly upregulated | PI3K relative expression (WB, GAPDH reference) [4]: significantly upregulated | cleaved caspase 9 relative expression (WB, GAPDH reference) [4]: significantly downregulated
